Laboratory results reported in paper PMC2761383, “Structural and functional characteristics of xenavidin, the first frog avidin from Xenopus tropicalis” (BMC Structural Biology, 2009).

Key:
[1] = Fluorescence spectroscopy dissociation analysis of fluorescent Bf560-biotin; type: binding
Protocol: The Quanta Master™ spectrofluorometer (Photon Technology International Inc., Lawrenceville, NJ) with a PTI Fluorescence Master System and the software Felix 32 was used to measure the biotin-binding properties of avidin, xenavidin and streptavidin. The analyses were done in a 50 mM sodium phosphate buffer (pH 7.0) containing 650 mM NaCl at two different temperatures (25 ± 1°C and 50 ± 1°C) by measuring the reversing of quenching of the biotin-coupled fluorescent probe ArcDia™ Bf560 (ArcDia Ltd., Turku, Finland) due to competition with free biotin (100-fold molar excess) as previously described. The spectrum of Bf560-biotin in the presence and absence of avidin is shown in [Additional file 4].

[2] = Optical biosensor analysis (Biacore X) of 2-iminobiotin binding
Excerpt: The Biacore X optical biosensor instrument was used in the analysis, where the CM5 sensor chip was functionalized with 2-iminobiotin. The functionalization of the chip was done in three phases: First, the carboxymethyl dextrane was activated using a mixture containing 0.2 M EDC (1-ethyl-3-(3-dimethylaminopropyl) carbodiimide hydrochloride) and 0.05 M NHS (N-hydroxysuccinimide) in water. Second, in order to introduce amino groups to the surface, 1 M ethylenediamine (Fluka 03550) in water was applied. Third, a mixture of EDC (0.2 M) and 2-iminobiotin (10 mM) was applied on the surface in 25 mM Na-phosphate pH 6.5. The amount of 2-iminobiotin attached on the surface was 81 response units.
Xenavidin was injected onto the sensor chip in a 50 mM sodium carbonate buffer (pH 11.0) containing 1 M NaCl at 25°C and using a flow rate of 50 μl/min. […] The surface was regenerated between measurement cycles by injecting 20 μl of 0.5 M acetic acid followed by washing with the measurement buffer.
BIAevaluation software v. 4.1 was used for data analysis, and a global fitting method was used to analyze the data set. A period of 20 seconds from the beginning of each injection was included in the association phase fit and the dissociation rate analysis was performed for a 60-second period starting immediately after the end of the injection.

proteinase K = assay: Limited proteolysis with proteinase K
Protocol: The stability of xenavidin against the proteinase K enzyme, which is known to cleave the L3,4-loop of avidin [41], was tested. The assay was performed in the presence or absence of biotin as previously described by Laitinen et al.. Protein samples were taken before the enzyme treatment and after adding enzyme at time points 30 min, 1 h, 2 h, 3 h, 18 h and 22 h (data not shown), and the samples were analyzed using SDS-PAGE analysis and Coomassie Brilliant Blue (Serva, Heidelberg, Germany) staining.

[3] = competition with free biotin (100-fold molar excess), pH 7.0
[4] = 2-iminobiotin chip, pH 11.0, 1 M NaCl, 25°C

Row | Substance | Dissociation rate constant at 25°C ([1]; 25°C, competition with free biotin (100-fold molar excess), pH 7.0) | Dissociation rate constant at 50°C [1, 3] | Release after 1 h at 50°C [1] [%] | Kd [2, 4] [nM] | kass [2, 4] [M⁻¹ s⁻¹] | kdiss [2, 4] [s⁻¹] | Kd ([2]; 2-iminobiotin functionalized chip, rounded value) [nM] | stability against proteinase K (proteinase K; absence of biotin) | stability against proteinase K (proteinase K; presence of biotin)
1 | Avidin: chicken avidin, biotin-binding protein; control sample expressed in E. coli | 2.3 s^-1 (× 10^-5) | 32.6 s^-1 (× 10^-5) | 76.5 | 102 | 94000 | 0.0096 | 100 | fragments of 10 kDa and below | protected avidin from proteolytic cleavage
2 | Streptavidin: bacterial biotin-binding protein from Streptomyces avidinii (Biomol GmbH); control sample |  | 0.7 s^-1 (× 10^-5) | 5.1 | 85 | 200000 | 0.017 |  |  | 
